Reference: patent US11505581B2, “Antigens and T cell epitopes from cockroach and methods of making and using same” (La Jolla Institute for Allergy and Immunology, priority 2015, dated 2022)

tested on: PBMC; assay: ELISPOT (IFNγ, IL-5, IL-10, IL-17, IL-21) of PBMC expanded 14 days with Bla g extract, then stimulated with peptides or peptide pools; assay type: cell-based, human; set-up: key to Average Magnitude of Response: spot forming cells (SFC) per 10^6 PBMC; Response Rate per Subject: unit not given here; conditions: non-redundant epitopes; sensitized donors
Method: PBMC Isolation and Cell Cultures: PBMC (peripheral blood mononuclear cells) were isolated from 450 mL (one unit) of blood by density gradient centrifugation as described and cryopreserved. For in vitro expansion of PBMC for peptide screening, cells were cultured in RPMI1640 (Omega Scientific)+5% human AB serum (Gemini Bioscience), GlutaMAX (Gibco), and penicillin/streptomycin (Omega Scientific) at 2×10^6 per mL, stimulated with 10 ug/mL Bla g extract (Greer), and incubated at 37° C. in 5% CO2. Every three days, IL-2 and IL-7 (10 U/mL) were added to the cultures. Cells were harvested for peptide screening at day 14.
ELISPOT Assays: Production of IFNγ, IL-5, IL-17, IL-10, and IL-21 (as representative of TH1, TH2, TH17, TR1, and […], respectively) in response to peptide stimulation was measured by ELISPOT as described previously. […] In brief, 1×10^5 cells per well were incubated with peptide, peptide pool, or Bla g extract (10, 5, and 10 ug/ml, respectively) on anti-lymphokine antibody coated ELISPOT plates (Millipore #MSIPS4510) for 22 hours. Subsequently, secondary anti-lymphokine antibodies were added and incubated for 2 hours, washed, and avidin-peroxidase complex added for 1 hour. Plates were washed and spots developed with 3-amino-9-ethylcarbazole (Sigma #A6926) and Vector Blue (Vector #SK-5300) for IFNγ/IL-5 and IL-10/IL-17 dual plates or TMB (Sigma #T0565) for single IL-21. Criteria for peptide pool positivity were at least 100 spot forming cells (SFC) per 10^6 PBMC, p<0.05, and stimulation index≥2. Criteria for peptide positivity were identical except with a threshold of 20 SFCs.
We synthetized overlapping peptide sets of 15 amino acids in length overlapping by 10 residues and covering the entire sequence of known Bla g Allergens, i.e. Bla g 1-7, 9 and 11, referred from hereafter collectively as BLAGA. A total of 809 BLAGA peptides were arranged in pools, encompassing on average 20 peptides.
To assess T cell reactivity, we utilized a strategy applied to the definition of epitopes from various allergen sources^15,16 utilizing in vitro stimulation with allergen extracts. Here, PBMC from each subject were stimulated in vitro with Bla g extract. After 14 days, pools of overlapping 15-mer peptides from the BLAGA were tested for responses, and positive pools deconvoluted to identify the specific epitopes. As readout, we utilized ELISPOT assays specific for IL-5, IFNγ, IL-10, IL-17 and IL-21, chosen as representative of TH2, TH1, TR1, TH17 and TFH reactivity, respectively.

Sequence | Average Magnitude of Response | Response Rate per Subject
AAIANYHYDADENSK | 26.2 | 11.4
AAVAYLQSDEFETIV | 3.2 | 1.4
AGTWSALNSIQQFIS | 15.7 | 7.1
AKGMMHMIKKGANGS | 18.7 | 2.9
AKRFAKWALPLYNKP | 12.2 | 1.4
ALNSIQQFISSEMVE | 4.4 | 4.3
ALREKVLGLPAIKAW (listed as Blattella germanica) | 77.1 | 12.9
AQIQVVIHLDEQYIY | 4.6 | 5.7
ARYFLERLSNDLPDV | 3.5 | 2.9
ATDYENYAIVEGCPA | 32.7 | 1.4
AVLALCATDTLANED | 3.0 | 2.9
CATDTLANEDCFRHE | 3.2 | 2.9
CPTNLGTTVRASVRI | 11.2 | 4.3
DCGVAGFRVDAAKHM | 3.9 | 2.9
DENSKQKKWDPLKKE | 10.3 | 5.7
DKKVYRVFESTVTGR | 4.4 | 2.9
DPSIHVLKMVAELTH | 3.4 | 1.4
DRKMYWQFKMDKIQI (listed as Blattella germanica) | 78.8 | 5.7
DRRGEMFYYTRQQLY | 3.5 | 1.4
DVLDIGGLKVQKQTF | 3.5 | 2.9
DVLQWQTIPYTTIHN | 15.9 | 2.9

Sequence | Average Magnitude of Response | Response Rate per Subject
EAGFAKLAASDSKSL | 16.0 | 7.1
EIDGKQTHQSVAISR | 3.8 | 4.3
EMIQHYTLDQVNQHK | 3.5 | 2.9
ERYQLVSYNLNSRSG | 3.4 | 1.4
EVVKANGGYLAAGKL | 4.6 | 5.7
FGSTLLDVIQSGLEN | 26.1 | 8.6
FLLSYGEKDFEDYRF | 8.5 | 8.6
FQINLDFKNHNGFIR | 52.0 | 1.4
FRKFSNNFEFSYLLG | 3.3 | 1.4
FRPWWERYQLVSYNL | 10.8 | 4.3
FSQMYHAQLAFSTAF | 3.4 | 2.9
FYTEFDMENNRVGFA | 11.3 | 2.9
GASILTYKTSKLYKM | 19.3 | 7.1
GEKDFEDYRFQEGDW | 12.0 | 8.6
GEPIRFLLSYGEKDF | 3.3 | 2.9
GHSHFVSDVVLSSDG | 9.6 | 2.9
GIRIYVDVVLNQMSG (listed as Blattella germanica) | 62.5 | 4.3
GKDYILRVSQLGHTV | 3.4 | 4.3
GQEYTFYVIVTPYAK | 3.2 | 2.9
GVTPVFYNMVKQGLV | 20.8 | 1.4
HDDRLGFLTFCPTNL (listed as Blattella germanica) | 83.1 | 7.1

Sequence | Average Magnitude of Response | Response Rate per Subject
HGRTFSSLFQVANQY | 8.4 | 4.3
HHQRLFMVQSLERVV | 3.1 | 2.9
HMAKEDLVANQPNLK (listed as Blattella germanica) | 68.8 | 4.3
HTKLSSSSSITLTLP | 6.2 | 5.7
HYQFDSIHKFEFASK | 24.4 | 1.4
IAGPVSEVTALNRQI | 3.3 | 2.9
IDDIIAILPVDDLYA | 6.6 | 2.9
IHENLIVTSPFRPWW | 9.3 | 2.9
IQGKFGLDATAVGDE | 6.9 | 1.4
IRFSVRRFHPKLGDK | 5.8 | 2.9
IRGRTKFEGNKFTID (listed as Blattella germanica) | 75.5 | 5.7
IRHAILAAGDLYSRR | 5.5 | 1.4
ISDFRAAIANYHYDA | 216.2 | 18.6
IVINNAGILNDEKWE | 10.8 | 4.3
KAAVHLLVAVKASKE | 4.4 | 1.4
KAHSMRNSASMDLSS | 16.4 | 4.3
KAIEEDLKHFNLKYE | 5.7 | 2.9
KAIFIKCDVTNIPEF | 9.3 | 7.1
KALQNAESEVAALNR | 6.0 | 1.4
KCHLTNIACLLHNKY | 22.6 | 5.7
KDDWENLEIDMIVDT | 8.4 | 2.9

Sequence | Average Magnitude of Response | Response Rate per Subject
KEFANVVRVVRHTSK | 3.3 | 2.9
KELVEKYGKGKAIFI | 3.4 | 2.9
KFEGNKFTIDYNDKG | 14.2 | 4.3
KFTIDYNDKGKAFSA | 32.0 | 11.4
KIGEYKNMIAEGIID | 6.2 | 1.4
KKLQFTYSESLDLDD | 4.2 | 2.9
KLAASDSKSLLRKYL | 43.8 | 7.1
KLGDKEMIQHYTLDQ | 5.0 | 1.4
KLYKMAVAFMLAYPY | 15.8 | 7.1
KNMTYVNTSLVLAFS | 8.4 | 2.9
KNRTTIRGRTKFEGN (listed as Blattella germanica) | 81.7 | 2.9
KQLKVSQIMEAARKL | 4.2 | 4.3
KTPVLEIDGKQTHQS (listed as Blattella germanica) | 57.0 | 14.3
KTPVLSVNATVVRLQ | 3.2 | 1.4
KVFLKNYLVGNAQFK | 6.4 | 1.4
KVIDLLLSLYLDQNE | 3.6 | 7.1
LDYLNHMAKEDLVAN | 13.0 | 10.0
LGHTVCLSGFMGIDL | 3.2 | 2.9
LIPVDQIIAIATDYL | 9.8 | 1.4
